Measured values from patent US20100215759A1 (priority 2009, published 2010).

Columns and labels:
[1] = tested on: old DBA/2J mice; experiment: Reduction of intraocular pressure (IOP) after application to the eye, TONOLab tonometer; format: in vivo; settings: versus basal IOP
From the text: The main risk factor in the glaucoma is represented by the high intraocular pressure (IOP). See for instance: Libby R. T. et al., Vis Neurosci. 2005 Sep.-Oct., 22(5):637-48 and Tomida I. et al., Br. J. Opthalmol. 2004 May, 88(5):708-13.
By using the animal model of old DBA/2J mice (see above) it has been evaluated the efficacy of the compound obtained in example 3.1 in reducing the IOP. As said, this compound has a good affinity towards the CB1 receptors in vitro (example 4) and a CB1 agonist action in vivo (example 5). The intraocular pressure has been determined by a TONOLab Tonometer (Tiolat Oy), as reported by M. E. Pease et al. in J. Glaucoma, 2006 December, 15(6):512-519. The compound was dispersed in the commercial emulsion Tocrisolve™, (Tocris), at a concentration of […] and applied to the eye of old DBA/2J mice (8-10 month age; basal IOP comprised between 19.0 and 22.5 mmHg). The applied emulsion volumes were such that the compound doses resulted, respectively, of 100 μg or 50 μg. WIN 55212-2 was dispersed in Tocrisolve™at the concentration of 5 mg/ml and was the reference cannabinoidergic compound. The determination of the ocular pressure was carried out every 30 minutes up to two hours starting from the administration. The obtained results (average of 6 measurements at each time for experimental groups of 8-10 animals for group/dose) are reported in Table 3. IOP decrease was expressed in percent with respect to the basal value.

[2] = tested on: men; settings: local administration in the eye; cited from earlier work

## Cc1c(C(=O)c2cccc3ccccc23)c2cccc3c2n1[C@H](CN1CCOCC1)CO3 [WIN 55212-2]
[1]; 50 μg to the eye in Tocrisolve, 30 minutes
  Intraocular Pressure Decrease: 4.3%
[1]; 50 μg to the eye in Tocrisolve, 60 minutes
  Intraocular Pressure Decrease: 3.0%
[1]; 50 μg to the eye in Tocrisolve, 90 minutes
  Intraocular Pressure Decrease: 2.0%
[1]; 50 μg to the eye in Tocrisolve, 120 minutes
  Intraocular Pressure Decrease: 1.9%
[1]; 100 μg to the eye in Tocrisolve, 30 minutes
  Intraocular Pressure Decrease: 23.1%
[1]; 100 μg to the eye in Tocrisolve, 60 minutes
  Intraocular Pressure Decrease: 21.3%
[1]; 100 μg to the eye in Tocrisolve, 90 minutes
  Intraocular Pressure Decrease: 18.1%
[1]; 100 μg to the eye in Tocrisolve, 120 minutes
  Intraocular Pressure Decrease: 13.2%
[2]
  IOP reduction in men: significant IOP reduction
